Where no end group is shown, it is not given here.
Key:
[1] = target: T1, mSPSB4ΔSB (Mus musculus, UniProt Q8R5B6); test: ITC of hPar-4 peptides with mSPSB4ΔSB; type: binding, murine; settings: 22 °C
T1 construct: mSPSB1 and mSPSB4 lacking the C-terminal SOCS box region (mSPSB1ΔSB and mSPSB4ΔSB); GST (cleaved yes); made in house; host or cells: E. coli Origami B(DE3) pLysS
T1 sequence (Q8R5B6 1-233): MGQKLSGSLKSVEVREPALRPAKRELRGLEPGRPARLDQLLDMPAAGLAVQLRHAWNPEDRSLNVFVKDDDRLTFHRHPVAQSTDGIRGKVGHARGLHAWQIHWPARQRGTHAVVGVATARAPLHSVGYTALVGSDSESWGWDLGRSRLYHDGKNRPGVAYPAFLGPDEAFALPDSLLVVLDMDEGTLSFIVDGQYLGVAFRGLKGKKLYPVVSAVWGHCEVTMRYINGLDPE
Method: (§1) Shorter mSPSB constructs were also used for mSPSB1 and mSPSB4 lacking the C-terminal SOCS box region (mSPSB1ΔSB and mSPSB4ΔSB); they were cloned into pGEX-2T (GE Healthcare, UK). […] Each of the mSPSBΔSB constructs was expressed in Origami B(DE3) pLysS cells (Novagen, Madison, WI) as a GST fusion protein at 20 °C for 24 h with 0.5 mM IPTG added at OD600 = 0.6–0.8.
(§2) ITC measurements on mSPSB proteins were performed at 22 °C using a MicroCalorimetry System (MicroCal, Northhampton, MA). mSPSB1, mSPSB2, and mSPSB4 were prepared by dialyzing against 20 mM Tris, 150 mM sodium chloride, and 2.5 mM calcium chloride at pH 8.0. Measurements on hSPSB proteins were performed at 20 °C using a VP-ITC titration calorimeter (MicroCal). hSPSB1 protein was dialyzed against 50 mM Hepes, pH 7.4, 150 mM NaCl, and 1 mM DTT. hSPSB2 and hSPSB4 proteins were dialyzed against 50 mM Hepes, pH 7.4, 150 mM NaCl, and 0.5 mM TCEP. Peptides for each experiment were dissolved in the corresponding dialysis buffers. ITC measurements were routinely carried out by titrating 100 μM peptide solution into 10 μM protein. Dilution enthalpies were determined separately by titrating peptide into buffer and used to correct the enthalpies of the binding of protein and peptide. Data were analyzed using a single binding site model implemented in the Origin software package provided with the instrument.

[2] = target: T2, mSPSB1ΔSB (Mus musculus, UniProt Q9D5L7); test: ITC of hPar-4 peptides with mSPSB1ΔSB; type: binding, murine; settings: 22 °C
T2 construct: mSPSB1 and mSPSB4 lacking the C-terminal SOCS box region (mSPSB1ΔSB and mSPSB4ΔSB); GST (cleaved yes); made in house; host or cells: E. coli Origami B(DE3) pLysS
T2 sequence (Q9D5L7 1-231): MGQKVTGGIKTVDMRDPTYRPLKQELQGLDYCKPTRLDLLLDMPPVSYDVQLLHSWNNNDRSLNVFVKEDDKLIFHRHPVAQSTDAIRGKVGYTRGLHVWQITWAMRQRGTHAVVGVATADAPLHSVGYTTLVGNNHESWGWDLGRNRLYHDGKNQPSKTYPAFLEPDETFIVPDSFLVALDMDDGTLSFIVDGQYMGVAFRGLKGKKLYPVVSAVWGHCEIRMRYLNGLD
Description: Shorter mSPSB constructs were also used for mSPSB1 and mSPSB4 lacking the C-terminal SOCS box region (mSPSB1ΔSB and mSPSB4ΔSB); they were cloned into pGEX-2T (GE Healthcare, UK). The shorter mSPSB2 construct excluded the first 11 residues at the N-terminus and the C-terminus SOCS box [mSPSB2(12–224)]. mSPSB2(12–224) and mutants used in this study have been described previously.[21] Each of the mSPSBΔSB constructs was expressed in Origami B(DE3) pLysS cells (Novagen, Madison, WI) as a GST fusion protein at 20 °C for 24 h with 0.5 mM IPTG added at OD600 = 0.6–0.8. The mSPSBΔSB proteins were isolated according to the method used for purifying the mSPSB–elonginBC complex.
as §2

[3] = test system: hSPSB1-elonginBC; set-up: method as in PMID 17189197; settings: previous study; cited from earlier work
[4] = target: T3, mSPSB2(12–224) (Mus musculus, UniProt O88838); test: ITC of hPar-4 peptides with mSPSB2(12–224); type: binding, murine; settings: 22 °C, pH 8.0, nm [sic]
T3 construct: mSPSB2(12–224) and mutants used in this study have been described previously; GST (cleaved yes); made in house; host or cells: E. coli Origami B(DE3) pLysS
T3 sequence (O88838 12-224): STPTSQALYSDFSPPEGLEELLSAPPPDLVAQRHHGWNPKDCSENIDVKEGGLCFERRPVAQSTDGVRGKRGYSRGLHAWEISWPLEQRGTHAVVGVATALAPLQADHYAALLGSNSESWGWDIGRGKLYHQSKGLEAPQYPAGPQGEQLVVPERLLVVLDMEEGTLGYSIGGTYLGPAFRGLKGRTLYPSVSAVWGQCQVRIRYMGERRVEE
Method: as §1, §2

[5] = target: mSPSB4ΔSB (murine); test: ITC; 100 μM peptide titrated into 10 μM mSPSB protein; 22 °C; 20 mM Tris, 150 mM sodium chloride, 2.5 mM calcium chloride, pH 8.0; single binding site model
[6] = 20 mM Tris, 150 mM NaCl, 2.5 mM CaCl2, pH 8.0, 100 μM peptide into 10 μM protein, ± standard error of the mean

Row | Compound | Kd [1, 6] [nM] | Kd [4] [nM] | also measured
1 | GTPAAAADNELNNNLPGGA [[A66D]hPar-4(59–77)] | 255 ± 5 |  | 
2 | AAANDLNNNLPGGA [[E68D]hPar-4(64–77)] | 47 ± 22 |  | 
3 | AAANELNNNLPGGA [hPar-4(64–77)] | 213 ± 7 |  | Kd [2, 6]: 210 ± 19 nM
4 | [N72A]hPar-4(67–81): N72A mutant peptide of hPar-4(67–81) from a previous study (ref 10) (NELNNALPGGAPAAP; UniProt Q96IZ0 67-81, looked up, variant N72A) |  |  | binding to hSPSB1-elonginBC (in words) [3]: poor binding
5 | AAANEINNNLPGGA [[L69I]hPar-4(64–77)] | 55 ± 8 |  | 
6 | AAANELANNLPGGA [[N70A]hPar-4(64–77)] |  | > 50000 | Kd ([1]; pH 8.0, nm [sic]): > 50000 nM; Kd ([2]; pH 8.0, nm [sic]): > 50000 nM
7 | AAANDINNNLPGGA [[E68D,L69I]hPar-4(64–77)] | 33 ± 23 |  | Kd [2, 6]: 40 ± 5 nM
8 | CC(C)C[C@H](NC(=O)[C@H](CCC(=O)O)NC(=O)[C@H](CC(N)=O)NC(=O)[C@H](C)NC(=O)[C@H](C)NC(=O)[C@H](C)NC(=O)[C@H](C)NC(=O)[C@H](C)NC(=O)[C@@H]1CCCN1C(=O)[C@@H](NC(=O)CN)[C@@H](C)O)C(=O)N[C@@H](CC(N)=O)C(=O)N[C@@H](CC(N)=O)C(=O)N[C@@H](C)C(=O)N[C@@H](CC(C)C)C(=O)N1CCC[C@H]1C(=O)NCC(=O)NCC(=O)N[C@@H](C)C(=O)O [[N72A]hPar-4(59–77)] |  | > 50000 | 
9 | hPar-4(59–77) (peptide) |  |  | Kd [5]: 189 nM
10 | AAANELNANLPGGA [[N71A]hPar-4(64–77)] |  | > 50000 | Kd ([1]; pH 8.0, nm [sic]): > 50000 nM; Kd ([2]; pH 8.0, nm [sic]): > 50000 nM

From paper PMC2923778 (Journal of Molecular Biology, 2010)
